# Assay results published in US20240108641A1, “COMPOSITIONS FOR ORAL ADMINISTRATION OF ZOLEDRONIC ACID OR RELATED COMPOUNDS FOR TREATING DISEASE” (ANTECIP BIOVENTURES II LLC, priority 2012, published 2024).
# Legend:
# [1] = system: chronic low back pain (LBP) and Modic changes; assay: randomized placebo-controlled trial in chronic low back pain with Modic changes, low back symptoms and lumbar flexibility; type: in vivo, human; conditions: for Fingers-to-floor, Unadjusted analyses Difference (95% CI) / Intensity of LBP, Unadjusted analyses Difference (95% CI) / Intensity of leg pain, Unadjusted analyses Difference (95% CI) / Oswestry disability index, Unadjusted analyses Difference (95% CI) / Sidebending to left, Unadjusted analyses Difference (95% CI) / Sidebending to right, Unadjusted analyses Difference (95% CI) / Fingers-to-floor, Adjusted analyses Difference (95% CI) / Intensity of LBP, Adjusted analyses Difference (95% CI) / Intensity of leg pain, Adjusted analyses Difference (95% CI) / Oswestry disability index, Adjusted analyses Difference (95% CI) / Sidebending to left, Adjusted analyses Difference (95% CI) / Sidebending to right, Adjusted analyses Difference (95% CI): ZA versus placebo; for Fingers-to-floor, Adjusted analyses Difference (95% CI) / Intensity of LBP, Adjusted analyses Difference (95% CI) / Intensity of leg pain, Adjusted analyses Difference (95% CI) / Oswestry disability index, Adjusted analyses Difference (95% CI) / Sidebending to left, Adjusted analyses Difference (95% CI) / Sidebending to right, Adjusted analyses Difference (95% CI): adjusted for baseline; for Intensity of LBP, Mean (SD) original values: 10 cm VAS
# Protocol: (§1) A study was performed to evaluate the efficacy of a single intravenous infusion of 5 mg ZA in comparison with intravenous placebo infusion among patients with chronic low back pain (LBP) and Modic changes on MRI. This study was a double-blinded, randomized, placebo-controlled clinical trial in patients with low back pain (LBP). Patients were included in the study if they had low back symptoms for at least three months, an LBP of at least six (6) on a 10-cm Visual Analog Scale (VAS) or an Oswestry Disability Index (ODI) of at least 30%, and an M1, mixed M1/2 or M2 type change on MRI performed within six months at most prior to enrolment.
# Patients were excluded from the study if they had renal impairment with reduced creatinine clearance defined as an estimated glomerular filtration rate (eGFR) below 40 ml/min, hypocalcemia, known hypersensitivity to zoledronic acid or other bisphosphonates or ingredients of the infusion product, the presence of red flags, nerve root entrapment or willingness for early retirement. Premenopausal women of childbearing potential were also excluded. Blood samples were taken prior to the infusion to assess the serum concentration of calcium and creatinine. The clinical examination included medical history and clinical assessment of lumbar flexibility, tendon signs, and motor and sensory testing.
# (§2) After confirmation of eligibility patients were randomized to receive a single intravenous infusion of 5 mg zoledronic acid (n=20) or 100 ml saline as placebo (n=20) over a 15-minute period. Information on use of the concomitant medication and hospital admissions were recorded. Blood samples were taken for the assessment of safety, inflammatory mediators and markers of bone turnover at baseline, one month and one year.
# (§3) Clinical assessments were performed 14 days before enrolment (screening visit), and follow-up visits at one month and one year after the infusion. The primary outcome was the change in the intensity of LBP on VAS. Secondary outcomes included leg pain intensity, ODI, health-related quality of life assessed with RAND-36, patient-reported sick leaves and lumbar flexibility. These outcome measures were assessed at baseline and at each follow-up. Lumbar flexibility was evaluated using the fingers-to-floor and trunk side bending measures (in cm). The percentage of patients undergoing a 20% relative improvement, the proportion of patients reaching a VAS score of 40 or less in the primary outcome, and patient acceptable symptom state (PASS) were also assessed. Pain medication use was inquired about during the follow-up visits.
# [2] = system: health-related quality of life (RAND-36); assay: randomized placebo-controlled trial in chronic low back pain with Modic changes, RAND-36 quality of life; type: in vivo, human; conditions: for RAND-36 Mental component, Unadjusted analyses Difference (95% CI) / RAND-36 Physical component, Unadjusted analyses Difference (95% CI) / Total RAND-36, Unadjusted analyses Difference (95% CI) / RAND-36 Mental component, Adjusted analyses Difference (95% CI) / RAND-36 Physical component, Adjusted analyses Difference (95% CI) / Total RAND-36, Adjusted analyses Difference (95% CI): ZA versus placebo; for RAND-36 Mental component, Adjusted analyses Difference (95% CI) / RAND-36 Physical component, Adjusted analyses Difference (95% CI) / Total RAND-36, Adjusted analyses Difference (95% CI): adjusted for baseline; for RAND-36 Mental component, Mean (SD) change / RAND-36 Mental component, Mean (SD) original values / RAND-36 Physical component, Mean (SD) change / RAND-36 Physical component, Mean (SD) original values / Total RAND-36, Mean (SD) change / Total RAND-36, Mean (SD) original values: single 5 mg IV infusion
# Protocol: as §1, §2, §3
# [3] = 12 mos., single 5 mg IV infusion
# [4] = one month, single 5 mg IV infusion
smiles,measurement,setting,value
O=P(O)(O)C(O)(Cn1ccnc1)P(=O)(O)O [zoledronic acid],"Fingers-to-floor, Unadjusted analyses Difference (95% CI)",[1]; 1 mo.,5.0 (−4.8 to 15) cm
same,"Intensity of LBP, Unadjusted analyses Difference (95% CI)",[1]; 1 mo.,1.3 (−0.2 to 2.8)
same,"Intensity of leg pain, Unadjusted analyses Difference (95% CI)",[1]; 1 mo.,0.8 (−0.9 to 2.4)
same,"Oswestry disability index, Unadjusted analyses Difference (95% CI)",[1]; 1 mo.,4.3 (−2.5 to 11) %
same,"Sidebending to left, Unadjusted analyses Difference (95% CI)",[1]; 1 mo.,−1.5 (−3.2 to 0.1) cm
same,"Sidebending to right, Unadjusted analyses Difference (95% CI)",[1]; 1 mo.,−2.0 (−4.3 to 0.4) cm
same,"Fingers-to-floor, Adjusted analyses Difference (95% CI)",[1]; 1 mo.,3.6 (−5.0 to 12) cm
same,"Intensity of LBP, Adjusted analyses Difference (95% CI)",[1]; 1 mo.,1.4
same,"Intensity of leg pain, Adjusted analyses Difference (95% CI)",[1]; 1 mo.,0.8 (−0.6 to 2.2)
same,"Oswestry disability index, Adjusted analyses Difference (95% CI)",[1]; 1 mo.,6.0%
same,"Sidebending to left, Adjusted analyses Difference (95% CI)",[1]; 1 mo.,−1.7 (−3.4 to 0.0) cm
same,"Sidebending to right, Adjusted analyses Difference (95% CI)",[1]; 1 mo.,−2.0 (−4.4 to 0.3) cm
same,"Intensity of LBP, Adjusted analyses Difference (95% CI)","[1]; 1 mo., listed as ZA",1.4 (0.01 to 2.9)
same,"Oswestry disability index, Adjusted analyses Difference (95% CI)","[1]; 1 mo., listed as ZA",6.0 (−0.6 to 13) %
same,"Fingers-to-floor, Mean (SD) change","[1]; 1 mo., single 5 mg IV infusion",−5.1 (20) cm
same,"Fingers-to-floor, Mean (SD) original values","[1]; 1 mo., single 5 mg IV infusion",17 (17) cm
same,"Intensity of LBP, Mean (SD) change","[1]; 1 mo., single 5 mg IV infusion",−2.2 (2.7)
same,"Intensity of leg pain, Mean (SD) change","[1]; 1 mo., single 5 mg IV infusion",−0.6 (2.4)
same,"Intensity of leg pain, Mean (SD) original values","[1]; 1 mo., single 5 mg IV infusion",2.0 (2.3)
same,"Oswestry disability index, Mean (SD) change","[1]; 1 mo., single 5 mg IV infusion",−5.9 (11) %
same,"Oswestry disability index, Mean (SD) original values","[1]; 1 mo., single 5 mg IV infusion",24 (10) %
same,"Sidebending to left, Mean (SD) change","[1]; 1 mo., single 5 mg IV infusion",1.1 (3.0) cm
same,"Sidebending to left, Mean (SD) original values","[1]; 1 mo., single 5 mg IV infusion",16.1 (5.3) cm
same,"Sidebending to right, Mean (SD) change","[1]; 1 mo., single 5 mg IV infusion",1.5 (4.7) cm
same,"Sidebending to right, Mean (SD) original values","[1]; 1 mo., single 5 mg IV infusion",15.7 (5.9) cm
same,"Intensity of LBP, Mean (SD) original values","[1]; 1 mo., single 5 mg IV infusion",4.3 (2.3)
same,"Fingers-to-floor, Unadjusted analyses Difference (95% CI)",[1]; 12 mos.,7.1 (−4.3 to 18) cm
same,"Intensity of LBP, Unadjusted analyses Difference (95% CI)",[1]; 12 mos.,0.6 (−1.1 to 2.4)
same,"Intensity of leg pain, Unadjusted analyses Difference (95% CI)",[1]; 12 mos.,0.6 (−1.5 to 2.7)
same,"Oswestry disability index, Unadjusted analyses Difference (95% CI)",[1]; 12 mos.,3.1 (−5.6 to 12) %
same,"Sidebending to left, Unadjusted analyses Difference (95% CI)",[1]; 12 mos.,−0.7 (−3.5 to 2.1) cm
same,"Sidebending to right, Unadjusted analyses Difference (95% CI)",[1]; 12 mos.,−1.6 (−4.3 to 1.1) cm
same,"Fingers-to-floor, Adjusted analyses Difference (95% CI)",[1]; 12 mos.,5.3 (−4.5 to 15) cm
same,"Intensity of LBP, Adjusted analyses Difference (95% CI)",[1]; 12 mos.,0.7
same,"Intensity of leg pain, Adjusted analyses Difference (95% CI)",[1]; 12 mos.,0.5 (−1.3 to 2.2)
same,"Oswestry disability index, Adjusted analyses Difference (95% CI)",[1]; 12 mos.,5.1 (−3.4 to 14) %
same,"Sidebending to left, Adjusted analyses Difference (95% CI)",[1]; 12 mos.,−1.0 (−3.8 to 1.8) cm
same,"Sidebending to right, Adjusted analyses Difference (95% CI)",[1]; 12 mos.,−1.7 (−4.2 to 0.8) cm
same,"Intensity of LBP, Adjusted analyses Difference (95% CI)","[1]; 12 mos., listed as ZA",0.7 (−1.0 to 2.4)
same,"Fingers-to-floor, Mean (SD) change",[1]; [3],−6.3 (23) cm
same,"Fingers-to-floor, Mean (SD) original values",[1]; [3],16 (16) cm
same,"Intensity of LBP, Mean (SD) change",[1]; [3],−2.8 (2.9)
same,"Intensity of leg pain, Mean (SD) change",[1]; [3],−0.9 (3.4)
same,"Intensity of leg pain, Mean (SD) original values",[1]; [3],2.1 (2.8)
same,"Oswestry disability index, Mean (SD) change",[1]; [3],−5.0 (15) %
same,"Oswestry disability index, Mean (SD) original values",[1]; [3],25 (13) %
same,"Sidebending to left, Mean (SD) change",[1]; [3],1.2 (5.3) cm
same,"Sidebending to left, Mean (SD) original values",[1]; [3],16.2 (6.7) cm
same,"Sidebending to right, Mean (SD) change",[1]; [3],1.6 (4.8) cm
same,"Sidebending to right, Mean (SD) original values",[1]; [3],15.7 (5.6) cm
same,"Intensity of LBP, Mean (SD) original values",[1]; [3],3.8 (2.5)
same,"Pain Reduction, VAS Change from Baseline","[1]; Baseline VAS < 6, single 5 mg IV infusion",−0.1 cm
same,"Pain Reduction, VAS Change from Baseline","[1]; Baseline VAS ≥ 6 and <7, single 5 mg IV infusion",−2.3 cm
same,"Pain Reduction, VAS Change from Baseline","[1]; Baseline VAS ≥ 7, single 5 mg IV infusion",−3.4 cm
same,mean reduction in pain from baseline,"[1]; baseline pain intensity <6, single 5 mg IV infusion",0.1
same,mean reduction in pain from baseline,"[1]; baseline pain intensity ≥7, single 5 mg IV infusion",3.4
same,proportion of patients reaching patient acceptable symptom state (PASS),[1]; [4],50%
same,proportion of patients with at least 20% improvement in intensity of LBP,[1]; [4],55%
same,patients using NSAIDs,"[1]; one year, single 5 mg IV infusion",20%
same,"RAND-36 Mental component, Unadjusted analyses Difference (95% CI)",[2]; 1 mo.,2.0 (−2 to 6)
same,"RAND-36 Physical component, Unadjusted analyses Difference (95% CI)",[2]; 1 mo.,0.3 (−4 to 5)
same,"Total RAND-36, Unadjusted analyses Difference (95% CI)",[2]; 1 mo.,1.2 (−3 to 5)
same,"RAND-36 Mental component, Adjusted analyses Difference (95% CI)",[2]; 1 mo.,1.6 (−2 to 5)
same,"RAND-36 Physical component, Adjusted analyses Difference (95% CI)",[2]; 1 mo.,1.3 (−3 to 6)
same,"Total RAND-36, Adjusted analyses Difference (95% CI)",[2]; 1 mo.,1.3 (−3 to 5)
same,"RAND-36 Mental component, Mean (SD) change",[2]; 1 mo.,1.0 (6.1)
same,"RAND-36 Mental component, Mean (SD) original values",[2]; 1 mo.,50 (9)
same,"RAND-36 Physical component, Mean (SD) change",[2]; 1 mo.,0.1 (8.6)
same,"RAND-36 Physical component, Mean (SD) original values",[2]; 1 mo.,52 (9)
same,"Total RAND-36, Mean (SD) change",[2]; 1 mo.,0.6 (6.4)
same,"Total RAND-36, Mean (SD) original values",[2]; 1 mo.,51 (8)
same,"RAND-36 Mental component, Unadjusted analyses Difference (95% CI)",[2]; 12 mos.,3.5 (−2 to 9)
same,"RAND-36 Physical component, Unadjusted analyses Difference (95% CI)",[2]; 12 mos.,0.7 (−5 to 6)
same,"Total RAND-36, Unadjusted analyses Difference (95% CI)",[2]; 12 mos.,2.1 (−3 to 7)
same,"RAND-36 Mental component, Adjusted analyses Difference (95% CI)",[2]; 12 mos.,2.7 (−2 to 7)
same,"RAND-36 Physical component, Adjusted analyses Difference (95% CI)",[2]; 12 mos.,2.1 (−3 to 7)
same,"Total RAND-36, Adjusted analyses Difference (95% CI)",[2]; 12 mos.,2.2 (−2 to 7)
same,"RAND-36 Mental component, Mean (SD) change",[2]; 12 mos.,1.8 (9.0)
same,"RAND-36 Mental component, Mean (SD) original values",[2]; 12 mos.,51 (9)
same,"RAND-36 Physical component, Mean (SD) change",[2]; 12 mos.,0.3 (10)
same,"RAND-36 Physical component, Mean (SD) original values",[2]; 12 mos.,52 (8)
same,"Total RAND-36, Mean (SD) change",[2]; 12 mos.,1.0 (8.7)
same,"Total RAND-36, Mean (SD) original values",[2]; 12 mos.,51 (8)
